Results as given in patent publication US20260027128A1 (priority 2016, published 2026).
Read-outs that look alike come from different tables or passages of the source.

How the values were obtained:
[1] = Plasma analysis and pharmacokinetics in Gottingen minipigs after intranasal administration (Example 4); details: for bioavailability: Bioavailability (0-tlast), intranasal, minipig No. 2; for Cmax: Cmax of Remimazolam
[2] = tested on: male rats; assay: Tolerability in rats: mortality, body weight, Irwin observations, body temperature, pupil size, gross pathology (Example 1)
[3] = tested on: male rats; assay: Clinical observations in rats after intranasal or IV remimazolam (Example 1); assay type: in vivo, rat; details: intranasal dosing
[4] = tested on: Gottingen minipigs; assay: Sedative effect score in Gottingen minipigs after single intranasal administration (Example 4); assay type: in vivo, minipig
[5] = Solubility of remimazolam in inhalation vehicle (Example 2); details: concentrations >25 mg/mL
[6] = Systemic and local tolerability (clinical signs, rhinoscopy, NOAEL) in Gottingen minipigs, single intranasal administration (Example 4); details: female, Gottingen, minipig, in vivo, inhaled or intranasal, 25 mg/animal
[7] = tested on: Gottingen minipigs; assay: as above; details: minipigs
[8] = study Y08AG004, micropigs, cited from earlier work
[9] = Plasma levels of Remimazolam and its main metabolite CNS7054 in rats (Example 1)
[10] = study 32236, female minipigs, intravenous infusion 120 mg/kg; cited from earlier work
[11] = minipig animal no. 2, intranasal 25 mg
[12] = intranasal 25 mg Remimazolam/animal

Cc1cnc2n1-c1ccc(Br)cc1C(c1ccccn1)=N[C@H]2CCC(=O)O [CNS7054]
tmax of the metabolite (CNS7054) ([1]; minipig animal no. 2, intranasal 25 mg Remimazolam): 15 min | tmax of the metabolite (CNS7054) ([1]; minipig animal nos. 1 and 3, intranasal 25 mg Remimazolam): 60 min | Plasma level of metabolite CNS7054, GLP-validated method ([1]; minipigs, intranasal 25 mg Remimazolam, below LLOQ): < 100 ng/mL

COC(=O)CC[C@@H]1N=C(c2ccccn2)c2cc(Br)ccc2-n2c(C)cnc21 [Remimazolam, methyl 3-[(4S)-8-bromo-1-methyl-6-(pyridin-2-yl)-4H-imidazo[1,2-a][1,4]benzodiazepin-4-yl]propanoate]
Gross pathology ([2]; male rats, Part B necropsy): No test item-related gross findings were noted | Tolerability of intranasal administration ([2]; rats): well tolerated | Time clinical observations were present following dosing [3]: up to 15 min | Sedative effects lasting up to [4, 11]: up to 30 minutes | Start of sedative effects after administration [4, 11]: 5 min | Time of maximum sedative effect [4, 11]: 10 minutes p.a. | Sedative effect ([4]; minipig animal nos. 1 and 3, intranasal 25 mg, scores of zero recorded): not affected | Solubility in a reasonable inhalation vehicle [5]: could not be tested due to lack of solubility in a reasonable vehicle | NOAEL [6]: ≥ 1.25 mg/kg | NOAEL for local tolerability (nasal mucosa) ([7]; dry drug product powder into one nostril): ≥ 25 mg/animal | Body weight [7, 12]: No test item-related influence on the body weight was observed | Clinical signs [7, 12]: No test item-related changes in behavior (except for sedation, see below) or external appearance were observed | Food and drinking water consumption [7, 12]: No test item-related influence was noted | Mortality [7, 12]: None of the animals died | Rhinoscopy: changes of the nasal mucosa (erythema, eschar or oedema formation) ([7]; nasal 25 mg Remimazolam/animal): No test item-related changes of the nasal mucosa | AUC0-last (data are for 0→∞) ([8]; intravenous bolus 1 mg/kg): 293.3^2 ng*h/ml | AUC0-last/Dose (data are for 0→∞) ([8]; intravenous bolus 1 mg/kg): 293.3^2 ng*h*kg/ml/mg | AUC0-last (data are for 0→∞) ([8]; intravenous infusion 2.4 mg/kg): 676.7^2 ng*h/ml | AUC0-last/Dose (data are for 0→∞) ([8]; intravenous infusion 2.4 mg/kg): 282.9^2 ng*h*kg/ml/mg | Systemic exposure following intranasal administration [9]: systemically exposed | AUC0-last [10]: 18215.23 ng·h/mL | AUC0-last/Dose [10]: 151.79 ng·kg·h/mL/mg | AUC(0-t) ([1]; female, Gottingen, minipig, plasma, inhaled or intranasal, 1.25 mg/kg, AUC0-last, present study (33659), minipig No. 2 (bw 20 kg), intranasal 1.25 mg/kg): 19.9 ng·h/mL | bioavailability ([1]; female, Gottingen, minipig, plasma, inhaled or intranasal, 1.25 mg/kg, reference Y08AG004 bolus (micropigs)): 5.43% | bioavailability ([1]; female, Gottingen, minipig, plasma, inhaled or intranasal, 1.25 mg/kg, reference Y08AG004 infusion (micropigs)): 5.63% | Tmax ([1]; female, Gottingen, minipig, plasma, inhaled or intranasal, 25 mg): 15 min | AUC(0-t) ([1]; female, Gottingen, minipig, plasma, inhaled or intranasal, 25 mg, AUC0->last of Remimazolam, minipig animal no. 2, intranasal 25 mg): ~20 ng·h/mL | AUC(0-t) ([1]; female, Gottingen, minipig, plasma, inhaled or intranasal, 25 mg, AUC0->last of Remimazolam, minipig animal no. 3, intranasal 25 mg): 7 ng·h/mL | Cmax ([1]; female, Gottingen, minipig, plasma, inhaled or intranasal, 25 mg, minipig animal no. 1, intranasal 25 mg, extrapolated below LLOQ): 17.4 ng/mL | Cmax ([1]; female, Gottingen, minipig, plasma, inhaled or intranasal, 25 mg, minipig animal no. 2, intranasal 25 mg, within GLP-validated range): 50.4 ng/mL | Cmax ([1]; female, Gottingen, minipig, plasma, inhaled or intranasal, 25 mg, minipig animal no. 3, intranasal 25 mg, extrapolated below LLOQ): ≤ 8.6 ng/mL | bioavailability ([1]; female, Gottingen, minipig, plasma, other: intranasal, 1.25 mg/kg, reference study 32236 (IV infusion, minipigs)): 10.5% | concentration at 0.25 h ([1]; female, Gottingen, minipig, plasma, other: intranasal, 25 mg/animal): 50.4 ng/mL | bioavailability ([1]; female, Gottingen, minipig, plasma, other: intranasal, 25 mg/animal, reference study 32236 (IV infusion, minipigs)): 10% | Plasma level of Remimazolam (CNS7056), GLP-validated method ([1]; minipigs, intranasal 25 mg, all samples except animal no. 2 at 0.25 hours p.a., below LLOQ): < 20 ng/mL | AUC0-last/Dose ([1]; present study (33659), minipig No. 2, intranasal 1.25 mg/kg): 15.94^1 ng*h*kg/ml/mg
